These results are taken from publication PMC8008425, “Shedding X-ray Light on the Role of Magnesium in the Activity of Mycobacterium tuberculosis Salicylate Synthase (MbtI) for Drug Design” (Journal of Medicinal Chemistry, 2020).

The target in data set [1] is T1, recombinant MbtI (Mycobacterium tuberculosis, UniProt P9WFX1). Briefly: MbtI enzymatic (fluorimetric) inhibition assay. It is filed as biochemical. The note with it: for remaining activity at 100 µM: residual enzymatic activity at 100 μM ligand concentration, 50 μM chorismic acid.
The test system of data set [2] is M. tuberculosis H37Rv. Details: method as in PMID 29940465, PMID 30889995. The note with it: Mtb cultures; cited from earlier work.
Data set [3] addresses T1, recombinant MbtI. The note with it: cited from earlier work.
The nature of the next data set: in vitro. The settings on record: human.
The test system of data set [4] is M. tuberculosis H37Rv. Briefly: MIC99 determination on Middlebrook 7H11 agar solid medium. It counts as cell-based. The note with it: Mycobacterium tuberculosis.
In data set [5] the test system is M. bovis BCG. It counts as cell-based, Mycobacterium bovis. The note with it: M. bovis BCG cultures grown at different concentrations of compound, chelated Sauton's medium.
The test system of data set [6] is M. bovis BCG. Kind of data set: microbe, parasite or virus in culture. It is filed as cell-based. The settings on record: Mycobacterium tuberculosis variant bovis BCG.
[7] abbreviates: standard assay, 5 mM MgCl2, read-out: IC50.

Each structure is given as a SMILES string. Values after ≈ are worked out from the molar mass of the structure shown. Values joined by “and” are separate entries in the source; they are usually repeats but may differ in a detail not shown here. Equal entries are not always repeated. Where two headings read alike, the source gives them in different places.

T1 sequence (P9WFX1 whole entry): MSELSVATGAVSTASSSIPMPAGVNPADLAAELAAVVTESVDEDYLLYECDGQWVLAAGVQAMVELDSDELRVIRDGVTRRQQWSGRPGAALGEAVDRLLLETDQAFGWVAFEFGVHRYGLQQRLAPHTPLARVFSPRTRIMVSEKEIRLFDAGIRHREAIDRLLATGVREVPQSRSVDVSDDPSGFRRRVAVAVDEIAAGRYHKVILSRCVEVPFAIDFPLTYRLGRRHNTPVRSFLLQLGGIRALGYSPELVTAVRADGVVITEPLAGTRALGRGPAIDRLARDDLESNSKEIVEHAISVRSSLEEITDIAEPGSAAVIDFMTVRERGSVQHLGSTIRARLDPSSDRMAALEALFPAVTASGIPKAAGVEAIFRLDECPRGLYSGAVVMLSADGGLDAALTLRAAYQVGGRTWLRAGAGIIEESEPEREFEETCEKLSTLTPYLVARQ

One may read the remaining activity as the signal under treatment as a percentage of the control signal. A word on the melting point: it is the temperature, or range, at which the solid turns liquid. As for `Cc1cccc(-c2ccc(C(=O)O)o2)c1` [Compound 4, 5-(m-Tolyl)furan-2-carboxylic Acid], the melting point worked out at 147 °C. Moreover, the remaining activity at 100 µM at recombinant MbtI [1] (5 mM MgCl2) is 104 ± 4.8%.
By IC50 is commonly meant the concentration that inhibits the measured activity by half. Take `O=C(O)c1ccc(-c2ccc([N+](=O)[O-])cc2)o1` [I]: the MIC99 in the data set with M. tuberculosis H37Rv [2] is 156 µM (≈ 36.4 µg/mL). On recombinant MbtI [3] (previous leads), the IC50 is 7.6 ± 1.6 µM.
With `O=C(O)c1ccc(-c2cccc([N+](=O)[O-])c2)o1` [NO2, 5-(3-nitrophenyl)furan-2-carboxylic acid], the inhibitory activity on recombinant MbtI [3] (at a concentration of 100 μM) is listed as about 50%.
For the compound `NC(=O)c1cccc(-c2ccc(C(=O)O)o2)c1` [Compound 6, 5-(3-Carbamoylphenyl)furan-2-carboxylic Acid], the remaining activity at 100 µM on recombinant MbtI [1] (5 mM MgCl2) came out at 20.9 ± 4.3%. For the same compound, the IC50 at recombinant MbtI [1] (setting [7]) is 31 µM and 31.4 µM.
`O=C(O)c1ccc(-c2cccc(Cl)c2)o1` [Compound 2, 5-(3-Chlorophenyl)furan-2-carboxylic Acid]: the melting point was 187 °C (dec.). Besides, the remaining activity at 100 µM on recombinant MbtI [1] (5 mM MgCl2) turned out to be 102 ± 17.8%.
Take `N#Cc1cccc(-c2ccc(C(N)=O)o2)c1` [Compound 11, 5-(3-Cyanophenyl)furan-2-carboxamide]: the melting point is 202 °C. Besides, the IC50 on recombinant MbtI [1] (setting [7]) amounted to 17.3 ± 1.9 µM.
What is called Ki is a measure of affinity in units of concentration, obtained from inhibition or displacement. Take `N#Cc1cccc(-c2ccc(C(=O)O)o2)c1` [Compound 10, 5-(3-Cyanophenyl)furan-2-carboxylic Acid]: the IC50 in “in vitro” is over 100 µM; at recombinant MbtI [1] (0.1 mg/mL BSA, PAINS control, read-out: IC50 in the presence of BSA) it was 6.1 ± 0.9 µM; at recombinant MbtI [1] (1 mM MgCl2, Figure 5B, x-axis [10] (μM), read-out: IC50 at 1 mM MgCl2), 9.8 ± 1.3 µM; at recombinant MbtI [1] (5 mM MgCl2, Figure 5B, x-axis [10] (μM), read-out: IC50 at 5 mM MgCl2), 11.4 ± 2 µM; on recombinant MbtI [1] (0.01% (v/v) Triton X-100, PAINS control, read-out: IC50 in the presence of Triton X-100) it was 5.8 ± 1.2 µM; on recombinant MbtI [1] (25 mM MgCl2, Figure 5B, x-axis [10] (μM), read-out: IC50 at 25 mM MgCl2), 14.2 ± 1.1 µM. Further, the IC50 at recombinant MbtI [1] (100 mM DTT, PAINS control, read-out: IC50 in the presence of DTT) was 7.2 ± 1.1 µM; at recombinant MbtI [1] (IC50, standard assay, 5 mM MgCl2) it was 6.3 ± 0.9 µM; on recombinant MbtI [1] (setting [7]) it was about 6 µM. For the same compound, the MIC99 in the data set on M. tuberculosis H37Rv [4] and with M. bovis BCG [6] was 250 µM (≈ 53.3 µg/mL) each time. In addition, the “siderophore concentration (Universal CAS assay and quantification of mycobactins)” value in the data set with M. bovis BCG [5] is on record as “siderophore concentration decreased at higher concentrations of the compound”. The remaining activity at 100 µM at recombinant MbtI [1] (5 mM MgCl2) was determined as 3.1 ± 1%. The “mode of inhibition (kinetic analysis)” value at recombinant MbtI [1] (steady-state kinetics toward chorismic acid) is listed as “competitive inhibitor”. In addition, the Ki at recombinant MbtI [1] (steady-state kinetics toward chorismic acid, competitive inhibition) was 4.2 µM and 4 µM.
`NS(=O)(=O)c1cccc(-c2ccc(C(=O)O)o2)c1` [Compound 8, 5-(3-Sulfamoylphenyl)furan-2-carboxylic Acid]: at recombinant MbtI [1] (5 mM MgCl2), the remaining activity at 100 µM stood at 28.6 ± 6.8%.
The compound `CNC(=O)c1cccc(-c2ccc(C(=O)O)o2)c1` [Compound 7, 5-(3-(Methylcarbamoyl)phenyl)furan-2-carboxylic Acid] showed a melting point of 159 °C. Besides, the remaining activity at 100 µM at recombinant MbtI [1] (5 mM MgCl2) came to 84 ± 9.1%.
The compound `O=C(O)c1ccc(-c2cccc(O)c2)o1` [Compound 3, 5-(3-Hydroxyphenyl)furan-2-carboxylic Acid] came in with a melting point of 170 °C. The remaining activity at 100 µM on recombinant MbtI [1] (5 mM MgCl2) was determined as 70.4 ± 21.8%.
In the case of `O=C(O)c1ccc(-c2cccc(C(F)(F)F)c2)o1` [Compound 1], the remaining activity at 100 µM at recombinant MbtI [1] (5 mM MgCl2) turned out to be 42 ± 6.3%.
On the same count and under the same terms, under `O=C(O)c1cccc(-c2ccc(C(=O)O)o2)c1` [Compound 9, 5-(3-Carboxyphenyl)furan-2-carboxylic Acid] stands 27.2 ± 4.5%.
`O=C(O)c1ccc(-c2ccc(C(F)(F)F)cc2C(F)(F)F)o1` [II]: the MIC99 in the data set with M. tuberculosis H37Rv [2] is 250 µM (≈ 81 µg/mL).
On to `Nc1cccc(-c2ccc(C(=O)O)o2)c1` [Compound 5, 5-(3-Aminophenyl)furan-2-carboxylic Acid], for which the melting point is 225 °C (dec.). Also, the remaining activity at 100 µM at recombinant MbtI [1] (5 mM MgCl2) worked out at 65.8 ± 9.6%.
